Literature values in patent US20070178172A1, “Composition for reducing blood lipids” (MAXLUCK BIOTECHNOLOGY CORP., priority 2004, published 2007).

System: obesity mouse
Conditions: Cefalu et al. 2002

chromium picolinate
effect on blood lipids: could reduce the blood lipids
